#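 Method: 48-hour compound exposure of cells in 96-well plates, five concentrations, linear interpolation of endpoints. TGI denotes the concentration required for complete inhibition of growth.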
# Experiments:
# Test in all cases: NCI anticancer screen, dose series, 48 h
# NCI-H23 lung = test system: NCI-H23 lung
# CCRF-CEM leukemia = test system: CCRF-CEM leukemia
# SNB-19 CNS = test system: SNB-19 CNS
# SK-MEL-28 melanoma = test system: SK-MEL-28 melanoma
# HCT-15 colon = test system: HCT-15 colon
# MDA-MB-231 breast = test system: MDA-MB-231 breast
# DU-145 prostate = test system: DU-145 prostate
# ACHN renal = test system: ACHN renal
# OVCAR-3 ovarian = test system: OVCAR-3 ovarian
# KM12 colon = test system: KM12 colon
# CAKI-1 renal = test system: CAKI-1 renal
# OVCAR-5 ovarian = test system: OVCAR-5 ovarian
# HCT-116 colon = test system: HCT-116 colon
# IGROV1 ovarian = test system: IGROV1 ovarian
# SK-MEL-2 melanoma = test system: SK-MEL-2 melanoma
# SNB-75 CNS = test system: SNB-75 CNS
# T-47D breast = test system: T-47D breast
# NCI/ADR-RES ovarian = test system: NCI/ADR-RES ovarian
# SK-MEL-5 melanoma = test system: SK-MEL-5 melanoma
# MOLT-4 leukemia = test system: MOLT-4 leukemia
# SW-620 colon = test system: SW-620 colon
# SR leukemia = test system: SR leukemia
# 786-0 renal = test system: 786-0 renal
# HOP-62 NSCLC = test system: HOP-62 NSCLC
# OVCAR-8 ovarian = test system: OVCAR-8 ovarian
# U251 CNS = test system: U251 CNS
# UACC-62 melanoma = test system: UACC-62 melanoma
# HCC-2998 colon = test system: HCC-2998 colon
# HT29 colon = test system: HT29 colon
# HL-60(TB) leukemia = test system: HL-60(TB) leukemia
# NCI-H460 lung = test system: NCI-H460 lung
# A498 renal = test system: A498 renal
# HOP-92 NSCLC = test system: HOP-92 NSCLC
# SF-295 CNS = test system: SF-295 CNS
# UACC-257 melanoma = test system: UACC-257 melanoma
# RXF 393 renal = test system: RXF 393 renal
# K-562 leukemia = test system: K-562 leukemia
# NCI-H522 lung = test system: NCI-H522 lung
# SK-OV-3 ovarian = test system: SK-OV-3 ovarian
# M14 melanoma = test system: M14 melanoma
# LOX IMVI melanoma = test system: LOX IMVI melanoma
# MDA-N = test system: MDA-N
# SN12C renal = test system: SN12C renal
# COLO 205 colon = test system: COLO 205 colon
# OVCAR-4 ovarian = test system: OVCAR-4 ovarian
# EKVX NSCLC = test system: EKVX NSCLC
# A549 NSCLC = test system: A549 NSCLC
# TK-10 renal = test system: TK-10 renal
# MDA-MB-435 = test system: MDA-MB-435
# PC-3 prostate = test system: PC-3 prostate
# RPMI-8226 leukemia = test system: RPMI-8226 leukemia
# UO-31 renal = test system: UO-31 renal
# BT-549 breast = test system: BT-549 breast
# MCF7 breast = test system: MCF7 breast
# MALME-3M melanoma = test system: MALME-3M melanoma
# SF-268 CNS = test system: SF-268 CNS
# SF-539 CNS = test system: SF-539 CNS
# NCI-H226 lung = test system: NCI-H226 lung
smiles,measurement,setting,value
COc1ccc2c(C)cc(C)nc2n1,TGI,NCI-H23 lung,> 100 µM
same,TGI,CCRF-CEM leukemia,> 100 µM
same,TGI,SNB-19 CNS,> 100 µM
same,TGI,SK-MEL-28 melanoma,> 100 µM
same,TGI,HCT-15 colon,> 100 µM
same,TGI,MDA-MB-231 breast,> 100 µM
same,TGI,DU-145 prostate,> 100 µM
same,TGI,ACHN renal,> 100 µM
same,TGI,OVCAR-3 ovarian,> 100 µM
same,TGI,KM12 colon,> 100 µM
same,TGI,CAKI-1 renal,> 100 µM
same,TGI,OVCAR-5 ovarian,> 100 µM
same,TGI,HCT-116 colon,> 100 µM
same,TGI,IGROV1 ovarian,> 100 µM
same,TGI,SK-MEL-2 melanoma,> 100 µM
same,TGI,SNB-75 CNS,> 100 µM
same,TGI,T-47D breast,> 100 µM
same,TGI,NCI/ADR-RES ovarian,> 100 µM
same,TGI,SK-MEL-5 melanoma,> 100 µM
same,TGI,MOLT-4 leukemia,> 100 µM
same,TGI,SW-620 colon,> 100 µM
same,TGI,SR leukemia,> 100 µM
same,TGI,786-0 renal,> 100 µM
same,TGI,HOP-62 NSCLC,> 100 µM
same,TGI,OVCAR-8 ovarian,> 100 µM
same,TGI,U251 CNS,> 100 µM
same,TGI,UACC-62 melanoma,> 100 µM
same,TGI,HCC-2998 colon,> 100 µM
same,TGI,HT29 colon,> 100 µM
same,TGI,HL-60(TB) leukemia,> 100 µM
same,TGI,NCI-H460 lung,> 100 µM
same,TGI,A498 renal,> 100 µM
same,TGI,HOP-92 NSCLC,> 100 µM
same,TGI,SF-295 CNS,> 100 µM
same,TGI,UACC-257 melanoma,> 100 µM
same,TGI,RXF 393 renal,> 100 µM
same,TGI,K-562 leukemia,> 100 µM
same,TGI,NCI-H522 lung,> 100 µM
same,TGI,SK-OV-3 ovarian,> 100 µM
same,TGI,M14 melanoma,> 100 µM
same,TGI,LOX IMVI melanoma,> 100 µM
same,TGI,MDA-N,> 100 µM
same,TGI,SN12C renal,> 100 µM
same,TGI,COLO 205 colon,> 100 µM
same,TGI,OVCAR-4 ovarian,> 100 µM
same,TGI,EKVX NSCLC,> 100 µM
same,TGI,A549 NSCLC,> 100 µM
same,TGI,TK-10 renal,> 100 µM
same,TGI,MDA-MB-435,> 100 µM
same,TGI,PC-3 prostate,> 100 µM
same,TGI,RPMI-8226 leukemia,> 100 µM
same,TGI,UO-31 renal,> 100 µM
same,TGI,BT-549 breast,> 100 µM
same,TGI,MCF7 breast,> 100 µM
same,TGI,MALME-3M melanoma,> 100 µM
Cc1cc(S(=O)(=O)NC2=NCC(C)NN2)c(S)cc1Cl (stereo unspecified),TGI,NCI-H23 lung,> 100 µM
same,TGI,CCRF-CEM leukemia,> 100 µM
same,TGI,SNB-19 CNS,> 100 µM
same,TGI,SK-MEL-28 melanoma,> 100 µM
same,TGI,HCT-15 colon,> 100 µM
same,TGI,MDA-MB-231 breast,> 100 µM
same,TGI,DU-145 prostate,> 100 µM
same,TGI,ACHN renal,> 100 µM
same,TGI,OVCAR-3 ovarian,> 100 µM
same,TGI,KM12 colon,> 100 µM
same,TGI,CAKI-1 renal,> 100 µM
same,TGI,OVCAR-5 ovarian,> 100 µM
same,TGI,HCT-116 colon,> 100 µM
same,TGI,IGROV1 ovarian,53.3 µM
same,TGI,SK-MEL-2 melanoma,84.3 µM
same,TGI,SF-268 CNS,73 µM
same,TGI,SNB-75 CNS,> 100 µM
same,TGI,T-47D breast,> 100 µM
same,TGI,NCI/ADR-RES ovarian,> 100 µM
same,TGI,SK-MEL-5 melanoma,> 100 µM
same,TGI,MOLT-4 leukemia,> 100 µM
same,TGI,SW-620 colon,> 100 µM
same,TGI,SR leukemia,90.4 µM
same,TGI,786-0 renal,> 100 µM
same,TGI,HOP-62 NSCLC,> 100 µM
same,TGI,OVCAR-8 ovarian,> 100 µM
same,TGI,U251 CNS,> 100 µM
same,TGI,UACC-62 melanoma,> 100 µM
same,TGI,HCC-2998 colon,> 100 µM
same,TGI,HT29 colon,> 100 µM
same,TGI,HL-60(TB) leukemia,> 100 µM
same,TGI,NCI-H460 lung,> 100 µM
same,TGI,A498 renal,69.8 µM
same,TGI,SF-295 CNS,> 100 µM
same,TGI,UACC-257 melanoma,> 100 µM
same,TGI,RXF 393 renal,> 100 µM
same,TGI,K-562 leukemia,80.9 µM
same,TGI,NCI-H522 lung,47 µM
same,TGI,SK-OV-3 ovarian,> 100 µM
same,TGI,M14 melanoma,> 100 µM
same,TGI,LOX IMVI melanoma,37.7 µM
same,TGI,MDA-N,> 100 µM
same,TGI,SF-539 CNS,> 100 µM
same,TGI,SN12C renal,> 100 µM
same,TGI,COLO 205 colon,> 100 µM
same,TGI,OVCAR-4 ovarian,> 100 µM
same,TGI,EKVX NSCLC,> 100 µM
same,TGI,A549 NSCLC,> 100 µM
same,TGI,TK-10 renal,> 100 µM
same,TGI,MDA-MB-435,> 100 µM
same,TGI,PC-3 prostate,> 100 µM
same,TGI,NCI-H226 lung,> 100 µM
same,TGI,RPMI-8226 leukemia,61.8 µM
same,TGI,UO-31 renal,> 100 µM
same,TGI,BT-549 breast,> 100 µM
same,TGI,MCF7 breast,> 100 µM
same,TGI,MALME-3M melanoma,69.2 µM
C[C@]12CCC3c4ccc(O)cc4CC[C@H]3C1CC(=O)NC2=O (stereo partly specified),TGI,NCI-H23 lung,> 10 µM
same,TGI,CCRF-CEM leukemia,> 10 µM
same,TGI,SNB-19 CNS,> 10 µM
same,TGI,SK-MEL-28 melanoma,> 10 µM
same,TGI,HCT-15 colon,> 10 µM
same,TGI,MDA-MB-231 breast,> 10 µM
same,TGI,DU-145 prostate,> 10 µM
same,TGI,ACHN renal,> 10 µM
same,TGI,OVCAR-3 ovarian,> 10 µM
same,TGI,KM12 colon,> 10 µM
same,TGI,CAKI-1 renal,> 10 µM
same,TGI,OVCAR-5 ovarian,> 10 µM
same,TGI,HCT-116 colon,> 10 µM
same,TGI,IGROV1 ovarian,> 10 µM
same,TGI,SK-MEL-2 melanoma,> 10 µM
same,TGI,SF-268 CNS,> 10 µM
same,TGI,T-47D breast,> 10 µM
same,TGI,NCI/ADR-RES ovarian,> 10 µM
same,TGI,SK-MEL-5 melanoma,> 10 µM
same,TGI,MOLT-4 leukemia,> 10 µM
same,TGI,SW-620 colon,> 10 µM
same,TGI,SR leukemia,> 10 µM
same,TGI,786-0 renal,> 10 µM
same,TGI,HOP-62 NSCLC,> 10 µM
same,TGI,OVCAR-8 ovarian,> 10 µM
same,TGI,U251 CNS,> 10 µM
same,TGI,HCC-2998 colon,> 10 µM
same,TGI,HT29 colon,> 10 µM
same,TGI,HL-60(TB) leukemia,> 10 µM
same,TGI,NCI-H460 lung,> 10 µM
same,TGI,A498 renal,> 10 µM
same,TGI,HOP-92 NSCLC,> 10 µM
same,TGI,SF-295 CNS,> 10 µM
same,TGI,UACC-257 melanoma,> 10 µM
same,TGI,RXF 393 renal,> 10 µM
same,TGI,K-562 leukemia,> 10 µM
same,TGI,SK-OV-3 ovarian,> 10 µM
same,TGI,M14 melanoma,> 10 µM
same,TGI,LOX IMVI melanoma,> 10 µM
same,TGI,MDA-N,> 10 µM
same,TGI,SF-539 CNS,> 10 µM
same,TGI,SN12C renal,> 10 µM
same,TGI,COLO 205 colon,> 10 µM
same,TGI,OVCAR-4 ovarian,> 10 µM
same,TGI,A549 NSCLC,> 10 µM
same,TGI,TK-10 renal,> 10 µM
same,TGI,MDA-MB-435,> 10 µM
same,TGI,PC-3 prostate,> 10 µM
same,TGI,NCI-H226 lung,> 10 µM
same,TGI,RPMI-8226 leukemia,> 10 µM
same,TGI,UO-31 renal,> 10 µM
same,TGI,BT-549 breast,> 10 µM
same,TGI,MCF7 breast,> 10 µM
same,TGI,MALME-3M melanoma,> 10 µM
